Assay results published in US12428406B2 (PMV Pharmaceuticals, Inc., priority 2019, dated 2025).

biological target: T1, p53 Y220C (Homo sapiens, UniProt P04637, Y220C); assay: In vitro DNA binding activity assay (HTRF / TR-FRET): stabilization of p53 Y220C and increase of its DNA binding activity; assay type: biochemical; conditions: recombinant His-tagged p53 Y220C DNA binding domain (aa 94-312), biotin-labeled consensus DNA, incubated at 27° C. or 29° C. for 60 min
T1 construct: The recombinant protein was a truncation mutant containing only amino acids 94-312 of p53; made in house; host or cells: E. coli
T1 sequence (P04637 94-312, change not shown): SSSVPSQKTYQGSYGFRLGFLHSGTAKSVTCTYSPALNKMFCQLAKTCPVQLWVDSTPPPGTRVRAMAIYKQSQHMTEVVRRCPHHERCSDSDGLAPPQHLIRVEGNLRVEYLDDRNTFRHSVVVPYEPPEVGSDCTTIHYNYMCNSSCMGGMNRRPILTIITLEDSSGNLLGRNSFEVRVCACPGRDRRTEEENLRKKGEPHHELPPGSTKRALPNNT
Description: The ability of a compound of the invention to stabilize p53 Y220C and increase the DNA binding activity of p53 Y220C was measured by a homogeneous time-resolved fluorescence (HTRF) assay. Recombinant His-tagged p53 Y220C used in the HTRF assay was expressed in the bacterium E. coli.
The binding of the recombinant His-tagged p53 Y220C protein and the biotin-labeled consensus DNA was measured using fluorescence resonance energy transfer (FRET). For the FRET assay, the binding between the p53 mutant and the DNA sequence was measured by detecting the fluorescence of the interaction between an anti-His antibody conjugated to allophycocyanin (APC) and streptavidin conjugated to europium to detect the biotin-labeled DNA.
The test compounds were prepared as 4.5 mM stock solutions in dimethyl sulfoxide (DMSO). The compounds of the disclosure were used to test the stabilization of p53 Y220C and increase in DNA binding activity of p53 Y220C. The stock solutions were then serially diluted 3-fold in DMSO, and 1.2 μL of the diluted solutions was added to each well of a 384-well polypropylene black plate.
The test and control samples were spun at 1200 rpm for 1 minute and incubated at room temperature for 15 minutes. […] The plates were spun at 1200 rpm for 1 minute and incubated at room temperature for 20 minutes. The assay signals were monitored by reading excitation at 340 nm, and emission fluorescence at 615 nm and 665 nm on a plate reader.
The percentage of activation of protein DNA binding in the presence of a compound of the invention compared to the absence of the compound was denoted by a SC150 value, which indicated the concentration of the compound required to increase the DNA binding activity by 50%. The SC150 values were calculated using either Prism™ or ActivityBase™.

Compound | SC150 (concentration of the compound required to increase the DNA binding activity by 50%)
COc1cc(S(N)(=O)=O)ccc1NCC#Cc1cc2c(N[C@H]3CC[C@H](N4CCCC4)CC3)cccc2n1CC(F)(F)F [Compound 422A, 3-methoxy-4-{[3-(4-{[(1R,4R)-4-(pyrrolidin-1-yl)cyclohexyl]amino}-1-(2,2,2-trifluoroethyl)-1H-indol-2-yl)prop-2-yn-1-yl]amino}benzene-1-sulfonamide] | + (+ = 0 μM ≤ SC150 < 0.05 μM)
CCC(=O)OCC(CNC(=O)c1ccc(NCC#Cc2cc3c(N[C@@H]4CCN(C)C[C@@H]4F)cccc3n2CC(F)(F)F)c(OC)c1)OC(=O)CC (stereo partly drawn) [Compound 971A, 1-[(4-{[3-(4-{[(3S,4R)-3-fluoro-1-methylpiperidin-4-yl]amino}-1-(2,2,2-trifluoroethyl)-1H-indol-2-yl)prop-2-yn-1-yl]amino}-3-methoxyphenyl)formamido]-3-(propanoyloxy)propan-2-ylpropanoate] | + (+ = 0 μM ≤ SC150 < 0.05 μM)
COc1cc(C(N)=O)ccc1NCC#Cc1cc2c(N[C@H]3CC[C@@H](N(C)C)CC3)cccc2n1CC(F)(F)F [Compound 613A, 3-methoxy-4-{[3-(4-{[(1S,4S)-4-(dimethylamino)cyclohexyl]amino}-1-(2,2,2-trifluoroethyl)-1H-indol-2-yl)prop-2-yn-1-yl]amino}benzamide] | + (+ = 0 μM ≤ SC150 < 0.05 μM)
COc1cc(S(C)(=O)=O)ccc1NCC#Cc1cc2c(N[C@@H]3CCOC[C@@H]3F)cccc2n1CC(F)(F)F [Compound 1026A, N-[(3R,4R)-3-fluorooxan-4-yl]-2-{3-[(4-methanesulfonyl-2-methoxyphenyl)amino]prop-1-yn-1-yl}-1-(2,2,2-trifluoroethyl)-1H-indol-4-amine] | + (+ = 0 μM ≤ SC150 < 0.05 μM)
COc1cc(S(C)(=O)=O)ccc1NCC#Cc1c(C)c2c(NC3CCN(C)CC3)cccc2n1CC(F)(F)F [Compound 520A, 2-{3-[(4-methanesulfonyl-2-methoxyphenyl)amino]prop-1-yn-1-yl}-3-methyl-N-(1-methylpiperidin-4-yl)-1-(2,2,2-trifluoroethyl)-1H-indol-4-amine] | +++ (+++ = 0.1 μM ≤ SC150 < 0.2 μM)
COc1cc(S(=O)(=O)N2CCN(C(C)=O)CC2)ccc1NCC#Cc1cc2c(NC3CCN(CC(O)CO)CC3)cccc2n1CC(F)(F)F (centres unmarked) [Compound 577A, 1-[4-(4-{[3-(4-{[1-(2,3-dihydroxypropyl)piperidin-4-yl]amino}-1-(2,2,2-trifluoroethyl)-1H-indol-2-yl)prop-2-yn-1-yl]amino}-3-methoxybenzenesulfonyl)piperazin-1-yl]ethan-1-one] | + (+ = 0 μM ≤ SC150 < 0.05 μM)
COc1cc(S(C)(=O)=O)ccc1NCC#Cc1cc2c(NC3CCN(C[C@H]4COC(=O)O4)CC3)cccc2n1CC(F)(F)F [Compound 578A, (4S)-4-({4-[(2-{3-[(4-methanesulfonyl-2-methoxyphenyl)amino]prop-1-yn-1-yl}-1-(2,2,2-trifluoroethyl)-1H-indol-4-yl)amino]pipendin-1-yl}methyl)-1,3-dioxolan-2-one] | + (+ = 0 μM ≤ SC150 < 0.05 μM)
COc1cc(C(=O)O)ccc1NCC#Cc1cc2c(N[C@@H]3CCN(C(C)C)C[C@@H]3F)cccc2n1CC(F)(F)F [Compound 809A, 4-{[3-(4-{[(3S,4R)-3-fluoro-1-(propan-2-yl)piperidin-4-yl]amino}-1-(2,2,2-trifluoroethyl)-1H-indol-2-yl)prop-2-yn-1-yl]amino}-3-methoxybenzoic acid] | + (+ = 0 μM ≤ SC150 < 0.05 μM)
CNC1CCC(Nc2cccc3c2cc(C#CCNc2ccc(S(C)(=O)=O)cc2OC)n3CC(F)(F)F)C(F)C1 (centres unmarked) [Compound 39A] | + (+ = 0 μM ≤ SC150 < 0.05 μM)
CCOc1cc(S(C)(=O)=O)ccc1NCC#Cc1cc2c(N[C@H]3CC[C@H](N4CCC5(CC4)COC5)CC3)cccc2n1CC(F)(F)F [Compound 393A, N-((1R,4R)-4-(2-oxa-7-azaspiro[3.5]nonan-7-yl)cyclohexyl)-2-(3-((2-ethoxy-4-(methylsulfonyl)phenyl)amino)prop-1-yn-1-yl)-1-(2,2,2-trifluoroethyl)-1H-indol-4-amine] | + (+ = 0 μM ≤ SC150 < 0.05 μM)
CNC(=O)c1ccc(NCC#Cc2cc3c(N[C@H]4CC[C@@H](N)CC4)cccc3n2CC(F)(F)F)c(OC)c1 [Compound 25A, 3-methoxy-N-methyl-4-{[3-(4-{[(1S,4S)-4-aminocyclohexyl]amino}-1-(2,2,2-trifluoroethyl)-1H-indol-2-yl)prop-2-yn-1-yl]amino}benzamide] | + (+ = 0 μM ≤ SC150 < 0.05 μM)
COc1cc(S(C)(=O)=O)ccc1NCC#Cc1cc2c(NC3CC4CCC(C3)N4C)cccc2n1CC(F)(F)F (centres unmarked) [Compound 990A, 2-{3-[(4-methanesulfonyl-2-methoxyphenyl)amino]prop-1-yn-1-yl}-N-{8-methyl-8-azabicyclo[3.2.1]octan-3-yl}-1-(2,2,2-trifluoroethyl)-1H-indol-4-amine] | + (+ = 0 μM ≤ SC150 < 0.05 μM)
COC(=O)c1ccc(NCC#Cc2cc3c(N[C@H]4CCN(C)C[C@H]4F)cccc3n2CC(F)(F)F)c(OC)c1 (stereo in doubt) [Compound 794A, methyl 4-{[3-(4-{[(3R,4S)-3-fluoro-1-methylpiperidin-4-yl]amino}-1-(2,2,2-trifluoroethyl)-1H-indol-2-yl)prop-2-yn-1-yl]amino}-3-methoxybenzoate] | + (+ = 0 μM ≤ SC150 < 0.05 μM)
COc1cc(S(=O)(=O)N2CCOCC2)ccc1NCC#Cc1cc2c(N[C@H]3CC[C@@H](N(C)C)CC3)cccc2n1CC(F)(F)F [Compound 68A, (1S,4S)-N4-[2-(3-{[2-methoxy-4-(morpholine-4-sulfonyl)phenyl]amino}prop-1-yn-1-yl)-1-(2,2,2-trifluoro-ethyl)-1H-indol-4-yl]-N^1,N^1-dimethyl-cyclohexane-1,4-diamine] | + (+ = 0 μM ≤ SC150 < 0.05 μM)
COC(=O)c1ccc(NCC#Cc2cc3c(N[C@H]4CCN(CCO)C[C@H]4F)cccc3n2CC(F)(F)F)c(OC)c1 [Compound 903A, methyl 4-{[3-(4-{[(3R,4S)-3-fluoro-1-(2-hydroxyethyl)piperidin-4-yl]amino}-1-(2,2,2-trifluoroethyl)-1H-indol-2-yl)prop-2-yn-1-yl]amino}-3-methoxybenzoate] | + (+ = 0 μM ≤ SC150 < 0.05 μM)
COCCOc1cc(S(C)(=O)=O)ccc1NCC#Cc1cc2c(NC3CCN(CC(O)COC)CC3)cccc2n1CC(F)(F)F (centres unmarked) [Compound 637A, 1-(4-{[2-(3-{[4-methanesulfonyl-2-(2-methoxyethoxy)phenyl]amino}prop-1-yn-1-yl)-1-(2,2,2-trifluoroethyl)-1H-indol-4-yl]amino}piperidin-1-yl)-3-methoxypropan-2-ol] | + (+ = 0 μM ≤ SC150 < 0.05 μM)
CN(C)[C@H]1CC[C@H](Nc2cccc3c2cc(C#CCNc2ccc(S(C)(=O)=O)cc2OCF)n3CC(F)(F)F)CC1 [Compound 117A, (1R,4R)—N^1-(2-(3-((2-(fluoromethoxy)-4-(methylsulfonyl)phenyl)amino)prop-1-yn-1-yl)-1-(2,2,2-trifluoroethyl)-1H-indol-4-yl)-N^4,N^4-dimethylcyclohexane-1,4-diamine] | + (+ = 0 μM ≤ SC150 < 0.05 μM)
CNC(=O)c1ccc(NCC#Cc2cc3c(NC4CCN(C[C@@H](O)COC)CC4)cccc3n2CC(F)(F)F)c(OC)c1 [Compound 647A, 4-({3-[4-({1-[(2R)-2-hydroxy-3-methoxypropyl]piperidin-4-yl}amino)-1-(2,2,2-trifluoroethyl)-1H-indol-2-yl]prop-2-yn-1-yl}amino)-3-methoxy-N-methylbenzamide] | + (+ = 0 μM ≤ SC150 < 0.05 μM)
COc1cc(S(C)(=O)=O)ccc1NCC#Cc1cc2c(NC(=O)NC3CCN(C)CC3)cccc2n1CC(F)(F)F [Compound 6A, 3-(2-{3-[(4-methanesulfonyl-2-methoxyphenyl)amino]prop-1-yn-1-yl}-1-(2,2,2-trifluoroethyl)-1H-indol-4-yl)-1-(1-methylpiperidin-4-yl)urea] | ++++ (++++ = 0.2 μM ≤ SC150 < 1 μM)
CN1CCC(Nc2cccc3c2cc(C#CCNc2ccc(CN4CCOCC4)cc2)n3CC(F)(F)F)CC1 [Compound 508A, N-(1-methylpiperidin-4-yl)-2-[3-({4-[(morpholin-4-yl)methyl]phenyl}amino)prop-1-yn-1-yl]-1-(2,2,2-trifluoroethyl)-1H-indol-4-amine] | + (+ = 0 μM ≤ SC150 < 0.05 μM)
